Like-named read-outs stand apart in the source and are kept apart here. Marks after values point to notes of the source that are not given here.
Type: in vivo, human
Settings: flurbiprofen 100 mg oral, n=12
[1] = arithmetic mean, Fluconazole/ placebo
[2] = arithmetic mean, Pom extract/ placebo
[3] = arithmetic mean, Pom juice/ placebo
[4] = geometric mean, Fluconazole/ placebo
[5] = geometric mean, Pom extract/ placebo
[6] = geometric mean, Pom juice/ placebo

SMILES: CC(C(=O)O)c1ccc(-c2ccccc2)c(F)c1 (stereo not drawn) [FLURBIPROFEN, Flurbiprofen]
- Cmax ratio [1]: 1.57 ^*
- Total AUC ratio [1]: 2.04 ^*
- Cmax ratio [2]: 1.08
- Total AUC ratio [2]: 1.09
- Cmax ratio [3]: 1.09
- Total AUC ratio [3]: 1.08
- Cmax ratio [4]: 1.47
- Total AUC ratio [4]: 1.97
- Cmax ratio [5]: 1.03
- Total AUC ratio [5]: 1.06
- Cmax ratio [6]: 1.03
- Total AUC ratio [6]: 1.05

— article PMC6170196 (Clinical pharmacology and therapeutics, 2012)
